Assay results from patent US8247211B2, “Glycopeptide antibiotics” (American Cyanamid Company, priority 2001, dated 2012).
≈ marks a conversion by molar mass, not a printed value.

Assays:
Test in all cases: In vitro antibacterial evaluation: minimum inhibitory concentration (MIC), broth dilution method
Type in all cases: cell-based
Enterococcus sp. = test system: Enterococcus sp.
In short: (§1)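 Following NCCLS approved standard M7-A2, compounds are serially diluted from 64 to 0.06 μg/mL in Muller-Hinton II […] and inoculated at 5×10^5 CFU/mL; the MIC is the minimum concentration at which growth is inhibited.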

Escherichia coli = test system: Escherichia coli
In short: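 Inoculum: 5×10^5 CFU/mL. Range: 64-0.06 μg/mL. Medium: Muller-Hinton II […]; NCCLS M7-A2 broth dilution. Endpoint: lowest concentration inhibiting growth. Strains include methicillin-, penicillin- and/or vancomycin-resistant clinical isolates.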

Staphylococcus sp. = conditions: broth dilution, 18 hours at 35° C.
In short: as §1

Streptococcus sp. = test system: Streptococcus sp.
In short: as §1

[1] = broth dilution, inoculum 5×10^5 CFU/mL, 18 hours at 35° C.

Q: `CC(c1ccccc1)C1NC(=O)CNC(=O)C(CO)NC(=O)C(C(O)C2CNC(=N)N2C2OC(CO)C(O)C(O)C2O)NC(=O)C(C(O)C2CNC(=N)N2)NC(=O)C(Cc2ccc(OC3OC(CO)C(OC4OC5COC(c6ccc(C(=O)c7ccccc7)cc6)OC5C(O)C4O)C(O)C3O)cc2)NC1=O` (stereo not drawn) [Example 173, Cyclo[glycyl-β-methylphenylalanyl-O-[4-O-[4,6-O-[4-benzoylbenzylidene)hexopyranosyl]-hexopyranosyl]tyrosyl-3-(2-iminoimidazolidin-4-yl)seryl-3-(3-hexopyranosyl-2-iminoimidazolidin-4-yl)serylseryl]] was tested. Which “MIC Enterococcus avium (GC 4558)” value (Enterococcus sp.; [1]) did it give?
A: 1 µg/mL (≈ 0.672 µM)

Q: What about the “MIC Enterococcus faecalis (ATCC 29212)” value (Enterococcus sp.; [1]) of the same compound?
A: 1 µg/mL (≈ 0.672 µM)

Q: And the “MIC Enterococcus faecalis (GC 2242)” value (Enterococcus sp.; [1])?
A: 2 µg/mL (≈ 1.34 µM)

Q: What about the “MIC Enterococcus faecalis (GC 2691)” value (Enterococcus sp.; [1]) of the same compound?
A: 2 µg/mL (≈ 1.34 µM)

Q: And the “MIC Enterococcus faecalis (GC 3059)” value (Enterococcus sp.; [1])?
A: 2 µg/mL (≈ 1.34 µM)

Q: And the “MIC Enterococcus faecalis (GC 4552)” value (Enterococcus sp.; [1])?
A: 2 µg/mL (≈ 1.34 µM)

Q: What about the “MIC Enterococcus faecalis (GC 4553)” value (Enterococcus sp.; [1]) of the same compound?
A: 2 µg/mL (≈ 1.34 µM)

Q: And the “MIC Enterococcus faecalis (GC 4554)” value (Enterococcus sp.; [1])?
A: 2 µg/mL (≈ 1.34 µM)

Q: What about the “MIC Enterococcus faecalis (GC 6189)” value (Enterococcus sp.; [1]) of the same compound?
A: 1 µg/mL (≈ 0.672 µM)

Q: And the “MIC Enterococcus faecium (GC 2243)” value (Enterococcus sp.; [1])?
A: 2 µg/mL (≈ 1.34 µM)

Q: What about the “MIC Enterococcus faecium (GC 4556)” value (Enterococcus sp.; [1]) of the same compound?
A: 1 µg/mL (≈ 0.672 µM)

Q: What about the “MIC Enterococcus faecium (GC 4557)” value (Enterococcus sp.; [1]) of the same compound?
A: 2 µg/mL (≈ 1.34 µM)

Q: What about the “MIC Enterococcus faecalis (ATCC 29212)” value (Enterococcus sp.; strain ATCC 29212) of the same compound?
A: 1 µg/mL (≈ 0.672 µM)

Q: And the “MIC Enterococcus faecalis (GC 2242)” value (Enterococcus sp.; strain GC 2242)?
A: 2 µg/mL (≈ 1.34 µM)

Q: And the “MIC Enterococcus faecium (GC 2243)” value (Enterococcus sp.; strain GC 2243)?
A: 2 µg/mL (≈ 1.34 µM)

Q: And the “MIC Enterococcus faecalis (GC 2691)” value (Enterococcus sp.; strain GC 2691)?
A: 2 µg/mL (≈ 1.34 µM)

Q: What about the “MIC Enterococcus faecalis (GC 3059)” value (Enterococcus sp.; strain GC 3059) of the same compound?
A: 2 µg/mL (≈ 1.34 µM)

Q: What about the “MIC Enterococcus faecalis (GC 4552)” value (Enterococcus sp.; strain GC 4552) of the same compound?
A: 2 µg/mL (≈ 1.34 µM)

Q: And the “MIC Enterococcus faecalis (GC 4553)” value (Enterococcus sp.; strain GC 4553)?
A: 2 µg/mL (≈ 1.34 µM)

Q: What about the “MIC Enterococcus faecalis (GC 4554)” value (Enterococcus sp.; strain GC 4554) of the same compound?
A: 2 µg/mL (≈ 1.34 µM)

Q: What about the “MIC Enterococcus faecium (GC 4556)” value (Enterococcus sp.; strain GC 4556) of the same compound?
A: 1 µg/mL (≈ 0.672 µM)

Q: And the “MIC Enterococcus faecium (GC 4557)” value (Enterococcus sp.; strain GC 4557)?
A: 2 µg/mL (≈ 1.34 µM)

Q: And the “MIC Enterococcus avium (GC 4558)” value (Enterococcus sp.; strain GC 4558)?
A: 1 µg/mL (≈ 0.672 µM)

Q: What about the “MIC Enterococcus faecalis (GC 6189)” value (Enterococcus sp.; strain GC 6189) of the same compound?
A: 1 µg/mL (≈ 0.672 µM)

Q: And the “MIC Escherichia coli (ATCC 25922)” value (Escherichia coli; strain ATCC 25922)?
A: 32 µg/mL (≈ 21.5 µM)

Q: What about the “MIC Escherichia coli (GC 4559)” value (Escherichia coli; strain GC 4559) of the same compound?
A: 16 µg/mL (≈ 10.8 µM)

Q: What about the “MIC Escherichi coli (GC 4560)” value (Escherichia coli; strain GC 4560) of the same compound?
A: 0.5 µg/mL (≈ 0.336 µM)

Q: And the “MIC Coagulase Negative Staphylococcus (GC 4547)” value (Staphylococcus sp.; 5×10^5 CFU/mL)?
A: 2 µg/mL (≈ 1.34 µM)

Q: And the “MIC Coagulase Negative Staphylococcus (GC 4548)” value (Staphylococcus sp.; 5×10^5 CFU/mL)?
A: 0.5 µg/mL (≈ 0.336 µM)

Q: What about the “MIC Coagulase Negative Staphylococcus (GC 4549)” value (Staphylococcus sp.; 5×10^5 CFU/mL) of the same compound?
A: 0.25 µg/mL (≈ 0.168 µM)

Q: What about the “MIC Coagulase Negative Staphylococcus (GC 4551)” value (Staphylococcus sp.; 5×10^5 CFU/mL) of the same compound?
A: 0.5 µg/mL (≈ 0.336 µM)

Q: What about the “MIC Coagulase Negative Staphylococcus (GC 6257)” value (Staphylococcus sp.; 5×10^5 CFU/mL) of the same compound?
A: 0.5 µg/mL (≈ 0.336 µM)

Q: What about the “MIC Staphylococcus aureus (ATCC 29213)” value (Staphylococcus sp.; 5×10^5 CFU/mL) of the same compound?
A: 1 µg/mL (≈ 0.672 µM)

Q: And the “MIC Staphylococcus aureus (GC 1131)” value (Staphylococcus sp.; 5×10^5 CFU/mL)?
A: 2 µg/mL (≈ 1.34 µM)

Q: And the “MIC Staphylococcus aureus (GC 3051)” value (Staphylococcus sp.; 5×10^5 CFU/mL)?
A: 0.5 µg/mL (≈ 0.336 µM)

Q: What about the “MIC Staphylococcus aureus (GC 3053)” value (Staphylococcus sp.; 5×10^5 CFU/mL) of the same compound?
A: 1 µg/mL (≈ 0.672 µM)

Q: And the “MIC Staphylococcus aureus (GC 4541)” value (Staphylococcus sp.; 5×10^5 CFU/mL)?
A: 0.5 µg/mL (≈ 0.336 µM)

Q: And the “MIC Staphylococcus aureus (GC 4542)” value (Staphylococcus sp.; 5×10^5 CFU/mL)?
A: 0.5 µg/mL (≈ 0.336 µM)

Q: And the “MIC Staphylococcus aureus (GC 4544)” value (Staphylococcus sp.; 5×10^5 CFU/mL)?
A: 2 µg/mL (≈ 1.34 µM)

Q: What about the “MIC Staphylococcus aureus (GC 4545)” value (Staphylococcus sp.; 5×10^5 CFU/mL) of the same compound?
A: 2 µg/mL (≈ 1.34 µM)

Q: What about the “MIC Staphylococcus aureus-SMITH (GC 4543)” value (Staphylococcus sp.; 5×10^5 CFU/mL) of the same compound?
A: 0.5 µg/mL (≈ 0.336 µM)

Q: And the “MIC Staphylococcus haemolyticus (GC 4546)” value (Staphylococcus sp.; 5×10^5 CFU/mL)?
A: 1 µg/mL (≈ 0.672 µM)

Q: And the “MIC Staphylococcus aureus (ATCC 29213)” value (Staphylococcus sp.; strain ATCC 29213)?
A: 1 µg/mL (≈ 0.672 µM)

Q: And the “MIC Staphylococcus aureus (GC 1131)” value (Staphylococcus sp.; strain GC 1131)?
A: 2 µg/mL (≈ 1.34 µM)

Q: What about the “MIC Staphylococcus aureus (GC 3051)” value (Staphylococcus sp.; strain GC 3051) of the same compound?
A: 0.5 µg/mL (≈ 0.336 µM)

Q: What about the “MIC Staphylococcus aureus (GC 3053)” value (Staphylococcus sp.; strain GC 3053) of the same compound?
A: 1 µg/mL (≈ 0.672 µM)

Q: What about the “MIC Staphylococcus aureus (GC 4541)” value (Staphylococcus sp.; strain GC 4541) of the same compound?
A: 0.5 µg/mL (≈ 0.336 µM)

Q: What about the “MIC Staphylococcus aureus (GC 4542)” value (Staphylococcus sp.; strain GC 4542) of the same compound?
A: 0.5 µg/mL (≈ 0.336 µM)

Q: And the “MIC Staphylococcus aureus (GC 4544)” value (Staphylococcus sp.; strain GC 4544)?
A: 2 µg/mL (≈ 1.34 µM)

Q: And the “MIC Staphylococcus aureus (GC 4545)” value (Staphylococcus sp.; strain GC 4545)?
A: 2 µg/mL (≈ 1.34 µM)

Q: What about the “MIC Streptococcus agalactiae (GC 4564)” value (Streptococcus sp.; [1]) of the same compound?
A: <0.12 µg/mL

Q: And the “MIC Streptococcus pneumoniae (ATCC 6301)” value (Streptococcus sp.; [1])?
A: <0.12 µg/mL

Q: What about the “MIC Streptococcus pneumoniae (GC 1894)” value (Streptococcus sp.; [1]) of the same compound?
A: <0.12 µg/mL

Q: What about the “MIC Streptococcus pneumoniae (GC 4565)” value (Streptococcus sp.; [1]) of the same compound?
A: <0.12 µg/mL

Q: And the “MIC Streptococcus pyogenes (GC 4563)” value (Streptococcus sp.; [1])?
A: <0.12 µg/mL

Q: And the “MIC Streptococcus pneumoniae (ATCC 6301)” value (Streptococcus sp.; strain ATCC 6301)?
A: <0.12 µg/mL

Q: And the “MIC Streptococcus pneumoniae (GC 1894)” value (Streptococcus sp.; strain GC 1894)?
A: <0.12 µg/mL

Q: And the “MIC Streptococcus pyogenes (GC 4563)” value (Streptococcus sp.; strain GC 4563)?
A: <0.12 µg/mL

Q: And the “MIC Streptococcus agalactiae (GC 4564)” value (Streptococcus sp.; strain GC 4564)?
A: <0.12 µg/mL

Q: And the “MIC Streptococcus pneumoniae (GC 4565)” value (Streptococcus sp.; strain GC 4565)?
A: <0.12 µg/mL
